# Assay results taken from ChEMBL document CHEMBL1671692, “Intravenous voriconazole after toxic oral administration” (Antimicrob Agents Chemother, 2010).
# Assays:
# Format in all cases: organism-based
# Homo sapiens [1] = assay: Toxicity in sphenoid sinus human patient assessed as occurrence of cutaneous reaction with red striae treatment increased upto 300 mg, po QID by biopsy hostopathological analysis; details: in vivo
# Homo sapiens [2] = assay: Toxicity in sphenoid sinus human patient assessed as cutaneous reaction treatment increased upto 300 mg, iv QID for 8 weeks measured after 2 weeks of treatment discontinuation; details: in vivo
# Homo sapiens [3] = assay: Toxicity in sphenoid sinus human patient assessed as recurrence of the cutaneous reaction treatment increased upto 500 mg, iv BID for 8 weeks; details: in vivo, 1344 h
# Homo sapiens [4] = assay: Toxicity in sphenoid sinus human patient assessed as occurrence of erythema multiforme treatment increased upto 300 mg, po QID by biopsy hostopathological analysis; details: in vivo
# Homo sapiens [5] = assay: Toxicity in sphenoid sinus human patient assessed as inflammatory infiltration treatment increased upto 300 mg, po QID by biopsy hostopathological analysis; details: in vivo
# Homo sapiens [6] = assay: Toxicity in sphenoid sinus human patient assessed as mild elevations in liver enzyme level treatment increased upto 500 mg, iv BID for 8 weeks; details: in vivo, 1344 h
# Homo sapiens [7] = assay: Toxicity in sphenoid sinus human patient assessed as increase in liver enzyme level treatment increased upto 300 mg, iv QID for 8 weeks measured after 2 weeks of treatment discontinuation; details: in vivo
# Homo sapiens [8] = assay: Toxicity in sphenoid sinus human patient assessed as occurrence of extended interface dermatitis with vacuolar alteration of the basilar epidermis treatment increased upto 300 mg, po QID by biopsy hostopathological analysis; details: in vivo
# Homo sapiens [9] = assay: Toxicity in sphenoid sinus human patient assessed as desensitization to several types of adverse reactions at 500 mg, iv BID after 8 weeks; details: in vivo, 1344 h
# Homo sapiens [10] = assay: Toxicity in sphenoid sinus human patient assessed as occurrence of epidermolysis bullosa acquisita treatment increased upto 300 mg, po QID by biopsy hostopathological analysis; details: in vivo
# Homo sapiens [11] = assay: Toxicity in sphenoid sinus human patient assessed as occurrence of superficial edema treatment increased upto 300 mg, po QID by biopsy hostopathological analysis; details: in vivo
# Homo sapiens [12] = assay: Toxicity in sphenoid sinus human patient assessed as occurrence of pseudoporphyria treatment increased upto 300 mg, po QID by biopsy hostopathological analysis; details: in vivo
# Homo sapiens [13] = assay: Toxicity in sphenoid sinus human patient assessed as apoptotic or necrotizing keratinocytes treatment increased upto 300 mg, po QID; details: in vivo
# Homo sapiens [14] = assay: Toxicity in sphenoid sinus human patient assessed as increase in liver enzyme level treatment increased upto 300 mg, iv QID relative to control; details: in vivo
smiles,measurement,setting,value
C[C@@H](c1ncncc1F)[C@](O)(Cn1cncn1)c1ccc(F)cc1F [VORICONAZOLE],Activity,Homo sapiens [1],Toxic
same,Activity,Homo sapiens [2],Non-toxic
same,Activity,Homo sapiens [3],Non-toxic
same,Activity,Homo sapiens [4],Toxic
same,Activity,Homo sapiens [5],Non-toxic
same,Activity,Homo sapiens [6],Toxic
same,Activity,Homo sapiens [7],Non-toxic
same,Activity,Homo sapiens [8],Toxic
same,Activity,Homo sapiens [9],Non-toxic
same,Activity,Homo sapiens [10],Toxic
same,Activity,Homo sapiens [11],Toxic
same,Activity,Homo sapiens [12],Toxic
same,Activity,Homo sapiens [13],Non-toxic
same,Activity,Homo sapiens [14],Toxic
